Legend:
[1] = Betulinol biacetate solubility in organic solvents; assay type: physicochemical
Description: Studies of betulinol biacetate solubility were conducted in order to determine the appropriate solvent for product crystallization and purification.

[2] = tested on: WALKER-CARCINOMA (carcinosarcoma); test: Anti-carcinogenic activity in rats implanted with Walker carcinoma (tumor volume, average length of life, % cured); assay type: in vivo, white rats
Description: (§1) The anti-carcinogenic activity of betulinol biacetate and betulonic aldehyde was assessed using 117-120 gram white rats implanted with […] and 21-23 gram white mice with artificially transplanted Ehrlich's tumor.
(§2) Solutions of 2.5% betulonic aldehyde and 0.05% betulinol biacetate were prepared in 10% polyvinylpyrrolidone containing Tween-80 (a sorbitan mono-9-octadecenate poly(oxy-1,2-ethanediyl)) stabilizer.
(§3) Mice were injected with 0.1-0.2 ml of either betulinol biacetate or betulonic aldehyde solution daily, starting 24 hours after transplantation, for the following 5 days. Rats were injected with 1.2 ml of either betulinol biacetate or betulonic aldehyde solution daily, starting 24 hours after implantation, for the following 5 days. Animals in control groups received the same amount of a 10% solution of polyvinylpyrrolidone.
(§4) The anti-tumor effect of betulinol acetate or betulonic aldehyde was determined by measuring the volume of the tumor on the 10th day after implantation. An average length of life ("ALL") was calculated for each of the deceased animals. In addition, the percentage of cured rats was also determined.
(§5) The volume of the tumor was measured and calculated as a multiple of the quadrate of its similar diameter by the greater diameter. Thus, the effect was expressed as a ratio ("E/C"), in percent, of the tumor volume in rats treated with betulinol acetate or betulonic aldehyde ("E") and the tumor volume in control rats ("C"). The effect of betulinol acetate or betulonic aldehyde on ALL was evaluated the same way.
(§6) A total of 155 mice and 142 rats were used for these experiments.

EHRLICH-LETTRE CARCINOMA = test: Anti-carcinogenic activity in mice with transplanted Ehrlich tumor (average length of life); assay type: in vivo, white mice; details: for ALL (Average length of life): 17 Mice/Group, control 10.6; for % of control (ALL): control = 100
Description: as §1, §2, §3, §4, §5, §6

[3] = Group 1, Dose/day 206.7 mg/kg body weight
[4] = Group 2, Dose/day 197.0 mg/kg body weight
[5] = Group 3, Dose/day 98.0 mg/kg body weight

C=C(C)[C@@H]1CC[C@]2(COC(C)=O)CC[C@]3(C)[C@H](CC[C@@H]4[C@@]5(C)CC[C@H](OC(C)=O)C(C)(C)[C@@H]5CC[C@]43C)[C@@H]12 [Betulinol diacetate, Betulinol Biacetate]
BBA Mass Content, %, at 20 °C ([1]; Acetone): 32 mass % | BBA Mass Content, %, at T (°C) ([1]; Acetone, 56 °C): 68 mass % | BBA Mass Content, %, at 20 °C ([1]; Benzene): 100 mass % | BBA Mass Content, %, at 20 °C ([1]; Butanol): 15 mass % | BBA Mass Content, %, at T (°C) ([1]; Butanol, 95 °C): 100 mass % | BBA Mass Content, %, at 20 °C ([1]; Chloroform): 100 mass % | BBA Mass Content, %, at 20 °C ([1]; Dimethylsulfoxide): 30 mass % | BBA Mass Content, %, at T (°C) ([1]; Dimethylsulfoxide, 189 °C): 100 mass % | BBA Mass Content, %, at 20 °C ([1]; Dioxane): 30 mass % | BBA Mass Content, %, at T (°C) ([1]; Dioxane, 101 °C): 100 mass % | BBA Mass Content, %, at 20 °C ([1]; Ethanol): 2.8 mass % | BBA Mass Content, %, at T (°C) ([1]; Ethanol, 78 °C): 18 mass % | BBA Mass Content, %, at 20 °C ([1]; Ethylacetate): 53 mass % | BBA Mass Content, %, at T (°C) ([1]; Ethylacetate, 77 °C): 100 mass % | BBA Mass Content, %, at 20 °C ([1]; Hexane): 15 mass % | BBA Mass Content, %, at T (°C) ([1]; Hexane, 69 °C): 52 mass % | BBA Mass Content, %, at 20 °C ([1]; Isopropanol): 6.5 mass % | BBA Mass Content, %, at T (°C) ([1]; Isopropanol, 82 °C): 72 mass % | BBA Mass Content, %, at 20 °C ([1]; Toluene): 100 mass %

C=C(C)[C@@H]1CC[C@]2(C=O)CC[C@]3(C)[C@H](CC[C@@H]4[C@@]5(C)CCC(=O)C(C)(C)[C@@H]5CC[C@]43C)[C@@H]12 [Betulon aldehyde, Betulonic Aldehyde]
rate of the tumor growth inhibited (of the control group) ([2]; 10th day, tumor volume versus control, dose and species not stated in the sentence (method speaks of rats)): 31.2% | ALL (Average length of life) ([2]; rats, Group 1, Dose/day 102.6 mg/kg body weight, injected daily for 5 days, 28 Rats/Group, control 21.7): 26.5 days | % of control (ALL) ([2]; rats, Group 1, Dose/day 102.6 mg/kg body weight, control = 100): 122.1% | % cured ([2]; rats, Group 1, Dose/day 102.6 mg/kg body weight, cured rats lived over two months after implantation): 33.0% | ALL (Average length of life) (EHRLICH-LETTRE CARCINOMA; [3]): 12.5 days | % of control (ALL) (EHRLICH-LETTRE CARCINOMA; [3]): 118.0% | ALL (Average length of life) (EHRLICH-LETTRE CARCINOMA; [4]): 10.5 days | % of control (ALL) (EHRLICH-LETTRE CARCINOMA; [4]): 99.1% | ALL (Average length of life) (EHRLICH-LETTRE CARCINOMA; [5]): 11.0 days | % of control (ALL) (EHRLICH-LETTRE CARCINOMA; [5]): 103.7%

Source: patent EP1473301A2, “Betulinol derivatives” (CORNELL RESEARCH FOUNDATION, INC., priority 1997, dated 1998)
